The text below walks through data of patent US20030027819A1, “Beta-sheet mimetics and methods relating to the use thereof” (Molecumetics Ltd., priority 1996, published 2003).

Read-outs that look alike come from different tables or passages of the source.

The test system of one data set is thioredoxin. Description: Insulin disulfide reduction by thioredoxin (turbidity at 650 nm). The note with it: 8 μM thioredoxin, 0-100 μM compound, 60 minutes.
For data set [1], the system named is TNF induced V-CAM expression in human umbilical vein entothelial cells (HUVEC). The experiment in a line: Inhibition of TNF induced V-CAM expression in HUVEC. Type of data set: cell-based. As for the experimental part: Upon stimulation with inflammatory cytokines, HUVEC express cell surface adhesion molecules, including E-selectin, V-CAM, and I-CAM. Proteasome antagonists inhibit TNFα induced expression of these adhesion molecules, thereby providing a mechanism for regulating leucocyte adhesion and the inflammatory response.
More specifically, compounds (65), (68), (69) and (71) were assayed by the procedures set forth by Deisher, Kaushansky and Harlan (“Inhibitors of Topoisomerase II Prevent Cytokine-Induced Expression of Vascular Cell Adhesion Molecule-1, While Augmenting the Expression of Endothelial Leukocyte Adhesion Molecule-1 on Human Umbilical Vein Endothelial Cells,” Cell Adhesion Commun. 1:133-42, 1993) (incorporated herein by reference), with the exception that tetramethyl benzidine was used in place of o-phenylenediamine-peroxide.

In the next data set the target is factor X (Bos taurus, UniProt P00743). Description: Factor X inhibition assay (Ki, Example 5), bovine plasma enzyme. The note with it: bovine plasma enzyme (Example 5 protocol). It is filed as biochemical. As to the method: The hydrolysis of chromogenic substrates was monitored at 405 nm. The reaction progress curves were recorded by reading the plates, typically 60 times with 30 second to 2 minute intervals. Initial rates were determined by unweighted nonlinear least-squares fitting to a first order reaction in GraFit (Erithacus Software Limited, London, England).
Buffer and substrate were the same as used for thrombin assay. A 1:100 dilution was made in the pH8.0 tris buffer to serve as the first point. Seven more dilutions from the first were made for the assay.

A further data set addresses factor VII (Homo sapiens, UniProt P08709). The experiment in a line: Factor VII inhibition assay (Ki, Example 5). It is filed as biochemical. As to the method: (§1) The reaction progress curves were recorded by reading the plates, typically 60 times with 30 second to 2 minute intervals. Initial rates were determined by unweighted nonlinear least-squares fitting to a first order reaction in GraFit (Erithacus Software Limited, London, England).
From this concentration point seven more sequential dilutions were made for the assay.

In data set [2] the target is T1, thrombin (Bos taurus, UniProt P00735). Description: Thrombin inhibition assay (Ki, Example 5). Further details: thrombin; bovine plasma; 0.66; from tissue; host or cells: bovine plasma. Type of data set: biochemical, bovine. As to the method:
as §1
Seven sequential dilutions were made from the first point for the assay.

The target in a further data set is Factor XI (Homo sapiens, UniProt P03951). The experiment in a line: Factor XI inhibition assay (Ki, Example 8). It is filed as biochemical. As for the experimental part: as §1
Factor XI. The same buffer was utilized in this assay as in the thrombin assay. […] From this 100 μM solution, seven serial 1:5 dilutions were made in buffer for assay.

Another data set deals with T2, trypsin (Bos taurus, UniProt P00760).
T2 sequence (P00760 24-246): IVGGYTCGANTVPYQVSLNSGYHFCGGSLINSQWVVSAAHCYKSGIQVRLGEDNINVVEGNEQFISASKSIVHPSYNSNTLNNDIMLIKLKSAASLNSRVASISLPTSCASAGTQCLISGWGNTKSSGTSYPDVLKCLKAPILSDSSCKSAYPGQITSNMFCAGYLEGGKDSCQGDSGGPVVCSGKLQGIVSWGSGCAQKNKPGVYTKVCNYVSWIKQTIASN
The experiment in a line: Trypsin inhibition assay (Ki, Example 5). Type of data set: biochemical, bovine. As to the method: as §1

The target in data set [3] is Tissue Plasminogen Activator (t-PA) (Homo sapiens, UniProt P00750). The experiment in a line: t-PA inhibition assay (Ki, Example 5). It is filed as biochemical. As to the method:
as §1

The next data set addresses Plasmin (Bos taurus, UniProt P06868). The experiment in a line: Plasmin inhibition assay (Ki, Example 5). Type of data set: biochemical, bovine. As for the experimental part: as §1
Data set [4] can be described thus: Pharmacodynamic and pharmacokinetic study in rats. Type of data set: in vivo, male Sprague Dawley rats. As to conditions: rat; for half-life: read-out: terminal halflife (converted). As to the method: Specifically, a pharmacodynamic and pharmacokinetic study of structure (20b) was conducted in male Sprague Dawley rats. […] Groups of rats (n ═3 or 4) were sacrificed and exsanguinated at 0.25, 0.5, 1, 2, 4 and 8 hours following dosing. Efficacy parameters, aPTT and TT, were measured for each plasma sample.

The target in the next data set is urokinase (Homo sapiens, UniProt P00749). The experiment in a line: Urokinase inhibition assay (Ki, Example 5). Type of data set: biochemical.
In the next data set the test system is control plasma. Description: Prothrombin time (PT) in control plasma. It is filed as biochemical. As for the experimental part:
Then 200 μl of prewarmed (at 37° C. for ˜10 minutes) thromboplastin with calcium (from Sigma) was rapidly added into the plasma sample.

Data set [5] deals with T1, thrombin. Description: Thrombin inhibition by solid phase compounds of Tables 11-15. It is filed as biochemical. Also noted: 100 μl of 10 μM thrombin solution. As to conditions: mixtures of diastereomers; read-out: Ki as thrombin inhibitors (mark at Cpd. No.). As to the method: Following extensive washing with DMF, the resin was treated with the acid fluoride of N-Fmoc-4-aminomethylbenzoic acid, or (81), or (86) and Hunigs' base in DMF until the Kaiser test was negative. Alternatively, the Fmoc-protected thiazole-(75) or imidazole-based (77) linkers were coupled to the resin using BOP, HOBt and DIEA. In some instances Fmoc-Leu or another amino acid was attached to the resin prior to the thiazole-(75) or imidazole-based (77) linkers via the same methodology. […] Following washing with DMF a dienoic acid was coupled to the resin-bound linkers using PyBOP, HOBt and Hunigs' base in DMF until the result of a Kaiser test was negative. The cycloaddition was performed by pretreatment of a solution of a pyrazolidinedione (not shown) or urazole in DMF with a solution of [bis(trifluoroacetoxy)iodo]benzene in DMF. […] The resin was then washed with DMF and CH2Cl2. Oxidation to the ketoamide was effected by treatment of the resin with a solution of Dess-Martin periodinane in DMSO for 60 min. […] The supernatant was collected and the resin was washed with additional TFA. The combined filtrates were concentrated in vacuo. The residue was precipitated with diethyl ether and the ether was decanted. The resulting solid was reconstituted in 1:1 CH3CN:H2O and lyophilized. […] The compounds were assayed for inhibition of coagulation enzymes as mixtures of diastereomers.

Sequence of Factor XI (P03951 388-625 limits assumed): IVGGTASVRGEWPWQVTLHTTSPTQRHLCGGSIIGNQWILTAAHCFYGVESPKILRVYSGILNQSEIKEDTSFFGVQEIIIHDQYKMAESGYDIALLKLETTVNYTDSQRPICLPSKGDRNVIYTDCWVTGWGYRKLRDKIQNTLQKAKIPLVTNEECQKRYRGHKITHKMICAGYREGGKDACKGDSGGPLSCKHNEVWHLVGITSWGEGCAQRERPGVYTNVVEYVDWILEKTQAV
Sequence of Factor XI (P03951 19-387 limits assumed): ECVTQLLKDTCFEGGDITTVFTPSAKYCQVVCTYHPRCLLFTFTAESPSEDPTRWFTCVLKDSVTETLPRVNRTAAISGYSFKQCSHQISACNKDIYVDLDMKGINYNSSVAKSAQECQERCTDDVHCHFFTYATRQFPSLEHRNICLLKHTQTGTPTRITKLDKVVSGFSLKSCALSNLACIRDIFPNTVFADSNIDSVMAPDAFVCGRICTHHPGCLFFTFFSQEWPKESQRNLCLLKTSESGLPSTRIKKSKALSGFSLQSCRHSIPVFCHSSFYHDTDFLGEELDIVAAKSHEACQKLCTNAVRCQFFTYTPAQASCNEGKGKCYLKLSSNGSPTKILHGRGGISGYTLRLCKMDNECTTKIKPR
Sequence of factor VII (P08709 213-466 limits assumed): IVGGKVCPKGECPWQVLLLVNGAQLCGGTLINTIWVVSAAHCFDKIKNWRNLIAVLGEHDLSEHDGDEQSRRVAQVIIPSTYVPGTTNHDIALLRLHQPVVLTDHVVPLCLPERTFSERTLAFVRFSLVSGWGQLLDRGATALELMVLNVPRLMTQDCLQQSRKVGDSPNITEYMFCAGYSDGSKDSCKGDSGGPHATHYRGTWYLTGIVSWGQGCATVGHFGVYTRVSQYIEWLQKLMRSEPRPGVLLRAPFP
Sequence of factor VII (P08709 61-212 limits assumed): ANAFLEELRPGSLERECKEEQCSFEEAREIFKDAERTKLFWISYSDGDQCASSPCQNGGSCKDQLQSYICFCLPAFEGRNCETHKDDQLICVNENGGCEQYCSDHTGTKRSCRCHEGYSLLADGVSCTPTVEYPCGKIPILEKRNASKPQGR
Sequence of factor VII (P13726 33-295 partner): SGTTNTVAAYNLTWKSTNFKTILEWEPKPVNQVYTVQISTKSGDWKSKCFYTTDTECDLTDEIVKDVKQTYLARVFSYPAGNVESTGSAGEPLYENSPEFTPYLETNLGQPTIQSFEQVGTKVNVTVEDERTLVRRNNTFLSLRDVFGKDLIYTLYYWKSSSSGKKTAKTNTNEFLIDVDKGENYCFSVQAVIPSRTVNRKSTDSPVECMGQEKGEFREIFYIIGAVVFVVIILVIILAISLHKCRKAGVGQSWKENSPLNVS
Sequence of factor X (P00743 234-492 limits assumed): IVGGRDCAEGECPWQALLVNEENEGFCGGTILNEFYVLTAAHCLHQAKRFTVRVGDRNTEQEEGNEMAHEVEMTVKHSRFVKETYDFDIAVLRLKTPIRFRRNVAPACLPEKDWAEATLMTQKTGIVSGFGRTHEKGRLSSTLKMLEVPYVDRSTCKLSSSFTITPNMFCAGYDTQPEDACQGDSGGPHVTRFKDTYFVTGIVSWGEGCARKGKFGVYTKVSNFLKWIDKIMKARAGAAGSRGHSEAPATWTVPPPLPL
Sequence of factor X (P00743 41-180 limits assumed): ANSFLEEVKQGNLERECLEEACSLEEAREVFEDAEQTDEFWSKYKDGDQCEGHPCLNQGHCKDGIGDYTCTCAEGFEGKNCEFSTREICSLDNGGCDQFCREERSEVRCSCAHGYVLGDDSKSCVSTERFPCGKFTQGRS
Sequence of Plasmin (P06868 584-812 limits assumed): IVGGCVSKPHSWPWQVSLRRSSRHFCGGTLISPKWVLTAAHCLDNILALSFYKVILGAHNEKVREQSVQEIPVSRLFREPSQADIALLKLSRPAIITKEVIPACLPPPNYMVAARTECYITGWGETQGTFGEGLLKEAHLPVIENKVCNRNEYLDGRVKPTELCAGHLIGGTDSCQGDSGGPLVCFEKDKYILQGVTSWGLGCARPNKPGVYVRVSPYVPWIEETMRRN
Sequence of Plasmin (P06868 104-583 limits assumed): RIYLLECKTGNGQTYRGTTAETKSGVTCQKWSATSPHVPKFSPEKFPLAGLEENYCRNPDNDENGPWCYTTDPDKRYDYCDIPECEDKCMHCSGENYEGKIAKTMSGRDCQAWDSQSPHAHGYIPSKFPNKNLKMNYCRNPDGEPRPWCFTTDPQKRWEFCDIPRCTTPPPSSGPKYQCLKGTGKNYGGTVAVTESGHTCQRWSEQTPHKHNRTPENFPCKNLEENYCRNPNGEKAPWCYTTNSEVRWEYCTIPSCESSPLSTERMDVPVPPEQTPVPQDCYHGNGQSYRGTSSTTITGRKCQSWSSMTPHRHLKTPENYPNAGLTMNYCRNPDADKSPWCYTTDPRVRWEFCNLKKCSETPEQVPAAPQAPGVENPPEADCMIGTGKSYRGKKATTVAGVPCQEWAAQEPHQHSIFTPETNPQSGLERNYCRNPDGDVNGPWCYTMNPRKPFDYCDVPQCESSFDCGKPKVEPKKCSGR
Sequence of Tissue Plasminogen Activator (t-PA) (P00750 36-562): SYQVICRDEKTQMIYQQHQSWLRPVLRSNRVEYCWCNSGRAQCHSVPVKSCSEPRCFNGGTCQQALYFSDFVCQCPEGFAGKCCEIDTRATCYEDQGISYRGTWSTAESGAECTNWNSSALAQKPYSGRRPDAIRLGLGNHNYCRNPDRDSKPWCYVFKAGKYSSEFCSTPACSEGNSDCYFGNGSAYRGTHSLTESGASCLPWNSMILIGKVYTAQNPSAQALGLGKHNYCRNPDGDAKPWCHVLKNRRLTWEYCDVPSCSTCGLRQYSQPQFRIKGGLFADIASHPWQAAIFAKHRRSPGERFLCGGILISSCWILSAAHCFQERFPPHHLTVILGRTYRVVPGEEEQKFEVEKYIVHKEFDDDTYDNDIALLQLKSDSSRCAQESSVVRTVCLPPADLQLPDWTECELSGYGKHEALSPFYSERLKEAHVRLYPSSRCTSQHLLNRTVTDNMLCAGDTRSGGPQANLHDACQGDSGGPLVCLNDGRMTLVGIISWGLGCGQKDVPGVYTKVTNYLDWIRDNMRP
Description for thioredoxin: A slight modification of the method of Holmgren was used. on a 96 well microtiter plate solutions of thioredoxin in 0.1 M potassium phosphate pH 6.5 buffer were preactivated for 15 minutes in the presence of 0.33 mM dithiothreitol (DTT) and 2 mM EDTA.
As a positive control, the structurally related natural products parthenolide and santonin were tested in the above assay in place of the inhibitors.

As for `COC(=O)/C=C/C(=O)C1C=CC(C)n2c(=O)n(-c3ccccc3)c(=O)n21` (stereo not drawn) [Structure 233], the “thioredoxin-induced turbidity of insulin at 650 nM” value (from here on “thioredoxin-induced turbidity”) in the data set with thioredoxin is “turbidity decreases with increasing concentration”.

For `O=C(CCl)C1CCCn2c(=O)n(-c3ccccc3)c(=O)n21` (stereo not drawn) [Structure 68], the IC50 in [1] stood at 14.2 ± 0.8 µM.

Regarding `N=C(N)NCCC[C@H](NC(=O)[C@@H]1CC[C@@H]2CC[C@](N)(Cc3ccccc3)C(=O)N21)C(=O)c1nc2ccccc2s1` [Structure 29a], the inhibition constant (Ki) on factor X turned out to be 4600 nM; at factor VII, 1800 nM; on thrombin [2], 10.4 nM; on Factor XI, 391 nM; at trypsin, 0.54 nM.

`CC1C=CC(C=O)n2c(=O)n(-c3ccccc3)c(=O)n21` (stereo not drawn) [Structure 69] showed an IC50 in data set [1] of 32.4 ± 1.7 µM.

Turning to `COC(=O)C#CC(O)c1cccc2c1C(=O)N(c1ccccc1)C2=O` (stereo not drawn) [Structure 71], half-maximal inhibition in data set [1] (IC50) was put at 4.9 ± 0.18 µM.

For the compound `COC(=O)C#CC(O)C1C=CC(C)n2c(=O)n(-c3ccccc3)c(=O)n21` (stereo not drawn) [Structure 231], in the data set with thioredoxin, the “thioredoxin-induced turbidity” value is recorded as “turbidity decreases with increasing concentration”.

`O=C(CCl)c1cccc2c1C(=O)N(c1ccccc1)C2=O` [Structure 65] returned an IC50 in data set [1] of 9.6 ± 0.1 µM.

Regarding `N=C(N)NCCC[C@H](NC(=O)[C@@H]1CCN2CC[C@@](N)(Cc3ccccc3)C(=O)N12)C(=O)c1nc2ccccc2s1` [Structure 20b], the Ki turned out to be 495 nM in [3] (read-out: Ki t-PA); 415 nM at Plasmin; 966 nM on factor X; 270 nM on factor VII; 27 nM on Factor XI; 600 nM on urokinase. In addition, the half-life in data set [4] (male, Sprague Dawley, plasma, 4 mg/kg IV) was 450 min; in data set [4] (male, Sprague Dawley, plasma, 10 mg/kg PO), 270 min. In addition, in data set [4] (male, Sprague Dawley, plasma, 10 mg/kg PO vs 4 mg/kg IV, read-out: bioavailability of orally administered compound), the bioavailability was around 27%. Moreover, the “Efficacy parameters aPTT and TT (FIGS. 4A and 4B)” value in data set [4] (4 mg/kg IV and 10 mg/kg PO) was “in vivo efficacy”.

For `N=C(N)NCCC[C@H](NC(=O)[C@@H]1CCN2CC[C@@](N)(Cc3ccccc3)C(=O)N12)C(=O)CCl` [Structure 13b], the PT is 13 s with control plasma (Concentration 1 pM); 17 s with control plasma (Concentration 10 pM); 18 s in the data set on control plasma (Concentration 50 pM); 23 s in the data set on control plasma (Concentration 100 pM); 24 s in the data set on control plasma (Concentration 200 pM); 27 s with control plasma (Concentration 500 pM). The PT turned out to be 30 s in the data set on control plasma (Concentration 1 nM); 31 s with control plasma (Concentration 10 nM); 31 s in the data set with control plasma (Concentration 30 nM); 30 s with control plasma (Concentration 50 nM); 33 s in the data set on control plasma (Concentration 80 nM).

For `CC(C)CC1C=CC(C(=O)NC(CCCCN)C(=O)C(=O)NCc2ccc(C(N)=O)cc2)n2c(=O)n(Cc3cccs3)c(=O)n21` (stereo not drawn) [Structure 110], on thrombin [5], the Ki is below 10 nM.

For `CC1=CC(C(=O)NC(CCCNC(=N)N)C(=O)c2nc(C(N)=O)cs2)n2c(=O)n(CC(c3ccccc3)c3ccccc3)c(=O)n2C1` (stereo not drawn) [Structure 198], the Ki at thrombin [5] is below 10 nM.

`CC1=CC(C(=O)NC(CCCCN)C(=O)C(=O)NCCc2ccc(C(N)=O)cc2)n2c(=O)n(Cc3cccs3)c(=O)n2C1c1ccccc1` (stereo not drawn) [Structure 124]: the inhibition constant (Ki) at thrombin [5] was below 10 nM.

Turning to `CCC=CCCC1C=CC(C(=O)NC(CCCCN)C(=O)C(=O)NCCc2ccc(C(N)=O)cc2)n2c(=O)n(Cc3ccccc3)c(=O)n21` (mixture of isomers) [Structure 107], the Ki at thrombin [5] is below 10 nM.

With `CC(Cn1c(=O)n2n(c1=O)C1CCCCC1=CC2C(=O)NC(CCCCN)C(=O)C(=O)NCCc1ccc(C(N)=O)cc1)c1ccccc1` (stereo not drawn) [Structure 121], the Ki at thrombin [5] was below 10 nM.

With `CC1=C2[C@H]3OC(=O)[C@@H](C)[C@@H]3CC[C@@]2(C)C=CC1=O` [Santonin, reference compound], the “thioredoxin-induced turbidity” value in the data set with thioredoxin is “did not block thioredoxin-induced turbidity of insulin”.

Regarding `CC(C)CC1C=CC(C(=O)NC(CCCCN)C(=O)C(=O)NCc2ccc(C(N)=O)cc2)n2c(=O)n(C(c3ccccc3)c3ccccc3)c(=O)n21` (stereo not drawn) [Structure 108], the Ki on thrombin [5] was below 10 nM.

Regarding `CC1=CC(C(=O)NC(CCCCN)C(=O)C(=O)NCc2ccc(C(N)=O)cc2)N2C(=O)C(N)(Cc3ccccc3)C(=O)N2C1` (stereo not drawn) [Structure 189], the inhibition constant Ki at thrombin [5] is below 10 nM.

As for `N=C(N)NCCC[C@H](NC(=O)[C@@H]1CCN2CC[C@@](N)(Cc3ccccc3)C(=O)N12)C(=O)c1nc2ccccc2s1` [20^b], the Ki was found to be 495 nM in data set [3] (read-out: Ki tPA (tissue Plasminogen Activator)); 415 nM at Plasmin; 270 nM at factor VII; 27 nM at Factor XI; 600 nM on urokinase.

As to `NCCCCC(NC(=O)C1C=C2CCCCC2n2c(=O)n(Cc3cc(F)ccc3F)c(=O)n21)C(=O)C(=O)NCCc1ccc(C(N)=O)cc1` (stereo not drawn) [Structure 120], the inhibition constant Ki at thrombin [5] was below 10 nM.

Take `CC(C)(C)CC1C=CC(C(=O)NC(CCCCN)C(=O)C(=O)NCCc2ccc(C(N)=O)cc2)n2c(=O)n(CC(c3ccccc3)c3ccccc3)c(=O)n21` (stereo not drawn) [Structure 143]: the inhibitory constant (Ki) on thrombin [5] is below 10 nM.

For `CC(CC1C=CC(C(=O)NC(CCCCN)C(=O)C(=O)NCCc2ccc(C(N)=O)cc2)n2c(=O)n(Cc3cc(F)ccc3F)c(=O)n21)CC(C)(C)C` (stereo not drawn) [Structure 135], at thrombin [5], the Ki was below 10 nM.

`CC(C)(C)CC1C=CC(C(=O)NC(CCCCN)C(=O)C(=O)NCCc2ccc(C(N)=O)cc2)n2c(=O)n(C(Cc3ccccc3)c3ccccc3)c(=O)n21` (stereo not drawn) [Structure 144]: the inhibition constant Ki on thrombin [5] is below 10 nM.

On to `CC1=CC(C(=O)NC(CCCCN)C(=O)C(=O)NCCc2ccc(C(N)=O)cc2)n2c(=O)n(Cc3cc(F)ccc3F)c(=O)n2C1c1ccccc1` (stereo not drawn) [Structure 122], for which the inhibitory constant (Ki) at thrombin [5] is below 10 nM.

On to `CC1=CC(C(=O)NC(CCCNC(=N)N)C(=O)c2nc(C(N)=O)c[nH]2)n2c(=O)n(CC(c3ccccc3)c3ccccc3)c(=O)n2C1` (stereo not drawn) [Structure 201], for which the Ki at thrombin [5] is below 10 nM.

Broadly, the IC50 is the concentration needed to halve the response being measured. As a reminder, the Ki is a dissociation constant, usually derived from enzyme kinetics or from competition with a known ligand. The bioavailability is the share of a dose that reaches the circulation, judged against a reference dose that is usually intravenous.
